We go through one compound from patent US20220118036A1, “USE OF MORCHELLA ACTIVE SUBSTANCE” (GRAPE KING BIO LTD., priority 2020, published 2022).

Several values for one entry are separate records, joined by “and”; a condition that tells them apart may be missing. Equal values may be shown once.

This assay deals with mouse skeletal muscle cells C2C12. As to the kind of experiment: Dexamethasone-induced muscle atrophy of differentiated C2C12 myotubes (myotube width, H&E staining). It is filed as cell-based. Particulars: 1 μM Dexamethasone alone, 24 hours, mean±SD, n = 60, control 30.39 ± 4.52. As for the experimental part: Currently, there have been experiments using Dexamethasone to induce muscle atrophy in mouse skeletal muscle cell C2C12. […] This paper uses a synthetic glucocorticoid-Dexamethasone to induce differentiated C2C12 atrophy as a model of muscle atrophy for sarcopenia study, in which the severity of muscle atrophy is measured according to the observation of morphology and diameter of the myotubes. According to such a method, in this experiment, the differentiated mouse skeletal muscle cell C2C12 is stained with H&E (hematoxylin and eosin) to assess the effect of the Morchella mycelium active substance in muscle atrophy. The experimental method is as follows:
(1) After the mouse skeletal muscle cells C2C12 was collected and the cell suspension concentration was adjusted, the cells were plated in a 6-well plate at a cell density of 1×10^5-2×10^5 with the cell growth medium (DMEM, 10% Fetal Bovine Serum).
(2) The 6-well plate of (1) was placed in a 5% CO2 incubator at 37° C. for two days and then observed under a microscope. […]
(5) Each test was repeated 3 times, and the numerical value was expressed as mean±SD (standard deviation). The statistical method used paired t-test to analyze the percentages of each item, and the significant difference was determined when the p-value was less than 0.05.

`C[C@@H]1C[C@H]2[C@@H]3CCC4=CC(=O)C=C[C@]4(C)[C@@]3(F)[C@@H](O)C[C@]2(C)[C@@]1(O)C(=O)CO` [Dexamethasone]: the myotube diameter was 19.98 μm and 19.98 ± 6.42 μm.
